Measurements reported in patent US10294234B2, “HIV inhibitor compounds” (priority 2017, dated 2019).

The molecules below were run on HIV-1 (IIIB) in MT-4 cells (assay: MT-4 HIV assay). Settings: Human immunodeficiency virus 1, MT4, 120 h.
Assay type: cell-based
Summary of the method: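 MT-4 cells infected with HIV-1 IIIB (1:250 stock dilution) were incubated with 1:3 serially diluted compounds in RPMI with 10% FBS for 5 days at 37 °C. Cell Titer Glo luminescence was the readout. Plates included mock-infected wells, no-drug wells and 5 uM AZT controls.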
In the case of `COC(=O)N[C@H](C(=O)N[C@@H](Cc1ccc(C#Cc2ccc(N3CC4CCC(C3)N4CC3CN(C(=O)OC(C)(C)C)C3)nc2)cc1)[C@@H](O)CN(Cc1c(F)cc(-c2cnn(C(F)F)c2)cc1F)NC(=O)[C@@H](NC(=O)OC)C(C)(C)C(F)(F)F)C(C)(C)C(F)(F)F` [Example 110, tert-butyl 3-((3-(5-((4-((2S,3S)-4-(1-(4-(1-(difluoromethyl)-1H-pyrazol-4-yl)-2,6-difluorobenzyl)-2-((S)-4,4,4-trifluoro-2-((methoxycarbonyl)amino)-3,3-dimethylbutanoyl)hydrazinyl)-3-hydroxy-2-((S)-4,4,4-trifluoro-2-((methoxycarbonyl)amino)-3,3-dimethylbutanamido)butyl)phenyl)ethynyl)pyridin-2-yl)-3,8-diazabicyclo[3.2.1]octan-8-yl)methyl)azetidine-1-carboxylate], the EC50 is reported as 30.8 nM.
`COC(=O)N[C@H](C(=O)N[C@@H](Cc1ccc(C#Cc2ccc(N3CC4CCC(C3)N4C3COC3)nc2)cc1)[C@@H](O)CN(Cc1ccc(-c2ccc(F)cn2)cc1)NC(=O)[C@@H](NC(=O)OC)C(C)(C)C(F)(F)F)C(C)(C)C(F)(F)F` [Example 111, Methyl ((5S,8S,9S,14S)-16,16,16-trifluoro-11-(4-(5-fluoropyridin-2-yl)benzyl)-9-hydroxy-15,15-dimethyl-8-(4-((6-(8-(oxetan-3-yl)-3,8-diazabicyclo [3.2.1]octan-3-yl)pyridin-3-yl)ethynyl)benzyl)-3,6,13-trioxo-5-(1,1,1-trifluoro-2-methylpropan-2-yl)-2-oxa-4,7,11,12-tetraazahexadecan-14-yl)carbamate] showed an EC50 of 7.22 nM.

Same assay, conditions: Human immunodeficiency virus 1, MT4, 120 h; HIV-1 (IIIB), MT-4 cells, 5 days, Cell Titer Glo; read-out: EC50
With `COC(=O)N[C@H](C(=O)N[C@@H](Cc1ccc(C#Cc2ccc(N3CC4CCC(C3)N4C3COC3)nc2)cc1)[C@@H](O)CN(Cc1c(F)cc(-c2ccc(C(F)F)nc2)cc1F)NC(=O)[C@@H](NC(=O)OC)C(C)(C)C(F)(F)F)C(C)(C)C(F)(F)F` [Example 100, Methyl ((5S,8S,9S,14S)-11-(4-(6-(difluoromethyl)pyridin-3-yl)-2,6-difluorobenzyl)-16,16,16-trifluoro-9-hydroxy-15,15-dimethyl-8-(4-((6-(8-(oxetan-3-yl)-3,8-diazabicyclo[3.2.1]octan-3-yl)pyridin-3-yl)ethynyl)benzyl)-3,6,13-trioxo-5-(1,1,1-trifluoro-2-methylpropan-2-yl)-2-oxa-4,7,11,12-tetraazahexadecan-14-yl)carbamate] the EC50 was 7.96 nM.
`COC(=O)N[C@H](C(=O)N[C@@H](Cc1ccc(C#Cc2ccc(N3CCN(C4CCOCC4)CC3)nc2)cc1)[C@@H](O)CN(Cc1c(F)cc(-c2ccn(C(F)F)n2)cc1F)NC(=O)[C@@H](NC(=O)OC)C(C)(C)C(F)(F)F)C(C)(C)C(F)(F)F` [Example 104, Methyl ((5S,8S,9S,14S)-11-(4-(1-(difluoromethyl)-1H-pyrazol-3-yl)-2,6-difluorobenzyl)-16,16,16-trifluoro-9-hydroxy-15,15-dimethyl-3,6,13-trioxo-8-(4-((6-(4-(tetrahydro-2H-pyran-4-yl)piperazin-1-yl)pyridin-3-yl)ethynyl)benzyl)-5-(1,1,1-trifluoro-2-methylpropan-2-yl)-2-oxa-4,7,11,12-tetraazahexadecan-14-yl)carbamate] gave an EC50 of 4.97 nM.
Work on `COC(=O)N[C@H](C(=O)N[C@@H](Cc1ccc(C#Cc2ccc(N3CC4CCC(C3)N4CC3(C)COC3)nc2)cc1)[C@@H](O)CN(Cc1c(F)cc(-c2cnn(C(F)F)c2)cc1F)NC(=O)[C@@H](NC(=O)OC)C(C)(C)C(F)(F)F)C(C)(C)C(F)(F)F` [Example 108, Methyl ((5S,8S,9S,14S)-11-(4-(1-(difluoromethyl)-1H-pyrazol-4-yl)-2,6-difluorobenzyl)-16,16,16-trifluoro-9-hydroxy-15,15-dimethyl-8-(4-((6-(8-((3-methyloxetan-3-yl)methyl)-3,8-diazabicyclo[3.2.1]octan-3-yl)pyridin-3-yl)ethynyl)benzyl)-3,6,13-trioxo-5-(1,1,1-trifluoro-2-methylpropan-2-yl)-2-oxa-4,7,11,12-tetraazahexadecan-14-yl)carbamate] yielded an EC50 of 7.23 nM.
`COC(=O)N[C@H](C(=O)N[C@@H](Cc1ccc(C#Cc2ccc(N3CC4CCC(C3)N4CC3CNC3)nc2)cc1)[C@@H](O)CN(Cc1c(F)cc(-c2cnn(C(F)F)c2)cc1F)NC(=O)[C@@H](NC(=O)OC)C(C)(C)C(F)(F)F)C(C)(C)C(F)(F)F` [Example 109, Methyl ((5S,8S,9S,14S)-8-(4-((6-(8-(azetidin-3-ylmethyl)-3,8-diazabicyclo[3.2.1]octan-3-yl)pyridin-3-yl)ethynyl)benzyl)-11-(4-(1-(difluoromethyl)-1H-pyrazol-4-yl)-2,6-difluorobenzyl)-16,16,16-trifluoro-9-hydroxy-15,15-dimethyl-3,6,13-trioxo-5-(1,1,1-trifluoro-2-methylpropan-2-yl)-2-oxa-4,7,11,12-tetraazahexadecan-14-yl)carbamate] showed an EC50 of 59.7 nM.
`COC(=O)N[C@H](C(=O)N[C@@H](Cc1ccc(C#Cc2ccc(N3CCN(C4COC4)CC3)nc2)cc1)[C@@H](O)CN(Cc1ccc(-c2cnn(C(F)F)c2)cc1)NC(=O)[C@@H](NC(=O)OC)C(C)(C)C(F)(F)F)C(C)(C)C(F)(F)F` [Example 113, Methyl ((5S,8S,9S,14S)-11-(4-(1-(difluoromethyl)-1H-pyrazol-4-yl)benzyl)-16,16,16-trifluoro-9-hydroxy-15,15-dimethyl-8-(4-((6-(4-(oxetan-3-yl)piperazin-1-yl)pyridin-3-yl)ethynyl)benzyl)-3,6,13-trioxo-5-(1,1,1-trifluoro-2-methylpropan-2-yl)-2-oxa-4,7,11,12-tetraazahexadecan-14-yl)carbamate] gave an EC50 of 6.01 nM.
Work on `COC(=O)N[C@H](C(=O)NN(Cc1ccc(-c2cnn(C3CC3)c2)cc1)C[C@H](O)[C@H](Cc1ccc(C#Cc2ccc(N3CC4CCC(C3)N4C3COC3)nc2)cc1)NC(=O)[C@@H](NC(=O)OC)C(C)(C)C(F)(F)F)C(C)(C)C` [Example 117, Methyl ((5S,8S,9S,14S)-11-(4-(1-cyclopropyl-1H-pyrazol-4-yl)benzyl)-9-hydroxy-15,15-dimethyl-8-(4-((6-(8-(oxetan-3-yl)-3,8-diazabicyclo [3.2.1]octan-3-yl)pyridin-3-yl)ethynyl)benzyl)-3,6,13-trioxo-5-(1,1,1-trifluoro-2-methylpropan-2-yl)-2-oxa-4,7,11,12-tetraazahexadecan-14-yl)carbamate] yielded an EC50 of 4.15 nM.
`COC(=O)N[C@H](C(=O)N[C@@H](Cc1ccc(C#Cc2cnc(N3CC4CCC(C3)N4C3COC3)nc2)cc1)[C@@H](O)CN(Cc1ccc(-c2ccn(C(F)F)n2)cc1F)NC(=O)[C@@H](NC(=O)OC)C(C)(C)C(F)(F)F)C(C)(C)C(F)(F)F` [Example 118, Methyl ((5S,8S,9S,14S)-11-(4-(1-(difluoromethyl)-1H-pyrazol-3-yl)-2-fluorobenzyl)-16,16,16-trifluoro-9-hydroxy-15,15-dimethyl-8-(4-((2-(8-(oxetan-3-yl)-3,8-diazabicyclo[3.2.1]octan-3-yl)pyrimidin-5-yl)ethynyl)benzyl)-3,6,13-trioxo-5-(1,1,1-trifluoro-2-methylpropan-2-yl)-2-oxa-4,7,11,12-tetraazahexadecan-14-yl)carbamate] gave an EC50 of 10.6 nM.
`COC(=O)N[C@H](C(=O)N[C@@H](Cc1ccc(C#Cc2ccc(N3C[C@@H](C)O[C@@H](C)C3)nc2)cc1)[C@@H](O)CN(Cc1c(F)cc(-c2cnn(C(F)F)c2)cc1F)NC(=O)[C@@H](NC(=O)OC)C(C)(C)C(F)(F)F)C(C)(C)C(F)(F)F` [Example 132, Methyl ((5S,8S,9S,14S)-11-(4-(1-(difluoromethyl)-1H-pyrazol-4-yl)-2,6-difluorobenzyl)-8-(4-((6-((2S,6R)-2,6-dimethylmorpholino)pyridin-3-yl)ethynyl)benzyl)-16,16,16-trifluoro-9-hydroxy-15,15-dimethyl-3,6,13-trioxo-5-(1,1,1-trifluoro-2-methylpropan-2-yl)-2-oxa-4,7,11,12-tetraazahexadecan-14-yl)carbamate] showed an EC50 of 18.2 nM.
`COC(=O)N[C@H](C(=O)N[C@@H](Cc1ccc(C#Cc2ccc(N3C[C@H]4C[C@@H]3CN4C3COC3)nc2)cc1)[C@@H](O)CN(Cc1c(F)cc(-c2ccc(F)cn2)cc1F)NC(=O)[C@@H](NC(=O)OC)C(C)(C)C(F)(F)F)C(C)(C)C(F)(F)F` [Example 135, Methyl ((5S,10S,11S,14S)-8-(2,6-difluoro-4-(5-fluoropyridin-2-yl)benzyl)-16,16,16-trifluoro-10-hydroxy-15,15-dimethyl-11-(4-((6-((1R,4R)-5-(oxetan-3-yl)-2,5 diazabicyclo[2.2.1]heptan-2-yl)pyridin-3-yl)ethynyl)benzyl)-3,6,13-trioxo-5-(1,1,1-trifluoro-2-methylpropan-2-yl)-2-oxa-4,7,8,12-tetraazahexadecan-14-yl)carbamate] gave an EC50 of 3.64 nM.
`COC(=O)N[C@H](C(=O)N[C@@H](Cc1ccc(C#Cc2ccc(N3CCN4CCOC[C@H]4C3)nc2)cc1)[C@@H](O)CN(Cc1c(F)cc(-c2ccn(C3CC3)n2)cc1F)NC(=O)[C@@H](NC(=O)OC)C(C)(C)C(F)(F)F)C(C)(C)C(F)(F)F` [Example 136, methyl ((5S,8S,9S,14S)-11-(4-(1-cyclopropyl-1H-pyrazol-3-yl)-2,6-difluorobenzyl)-16,16,16-trifluoro-8-(4-((6-((R)-hexahydropyrazino[2,1-c][1,4]oxazin-8(1H)-yl)pyridin-3-yl)ethynyl)benzyl)-9-hydroxy-15,15-dimethyl-3,6,13-trioxo-5-(1,1,1-trifluoro-2-methylpropan-2-yl)-2-oxa-4,7,11,12-tetraazahexadecan-14-yl)carbamate] showed an EC50 of 3.85 nM.
